Source: article PMC2099433, “The binding site for neohesperidin dihydrochalcone at the human sweet taste receptor” (BMC Structural Biology, 2007)
Residue numbers refer to the chain shown, from its start. Where a SMILES comes first, the peptide text is derived from it.

Legend:
[1] = target: T1, hTAS1R2 + hTAS1R3 T724L^5.37 (Homo sapiens, UniProt Q7RTX0+Q8TE23, T724L); test: Calcium response (FLIPR), hTAS1R3 mutant coexpressed with hTAS1R2; format: cell-based; settings: variant T724L^5.37; for Emax: read-out: maximal signal (% of wt)
T1 construct: expressed in transfected cells; host or cells: HEK293T cells stably expressing G16Gust44
T1 sequence (Q7RTX0 21-852 T724L): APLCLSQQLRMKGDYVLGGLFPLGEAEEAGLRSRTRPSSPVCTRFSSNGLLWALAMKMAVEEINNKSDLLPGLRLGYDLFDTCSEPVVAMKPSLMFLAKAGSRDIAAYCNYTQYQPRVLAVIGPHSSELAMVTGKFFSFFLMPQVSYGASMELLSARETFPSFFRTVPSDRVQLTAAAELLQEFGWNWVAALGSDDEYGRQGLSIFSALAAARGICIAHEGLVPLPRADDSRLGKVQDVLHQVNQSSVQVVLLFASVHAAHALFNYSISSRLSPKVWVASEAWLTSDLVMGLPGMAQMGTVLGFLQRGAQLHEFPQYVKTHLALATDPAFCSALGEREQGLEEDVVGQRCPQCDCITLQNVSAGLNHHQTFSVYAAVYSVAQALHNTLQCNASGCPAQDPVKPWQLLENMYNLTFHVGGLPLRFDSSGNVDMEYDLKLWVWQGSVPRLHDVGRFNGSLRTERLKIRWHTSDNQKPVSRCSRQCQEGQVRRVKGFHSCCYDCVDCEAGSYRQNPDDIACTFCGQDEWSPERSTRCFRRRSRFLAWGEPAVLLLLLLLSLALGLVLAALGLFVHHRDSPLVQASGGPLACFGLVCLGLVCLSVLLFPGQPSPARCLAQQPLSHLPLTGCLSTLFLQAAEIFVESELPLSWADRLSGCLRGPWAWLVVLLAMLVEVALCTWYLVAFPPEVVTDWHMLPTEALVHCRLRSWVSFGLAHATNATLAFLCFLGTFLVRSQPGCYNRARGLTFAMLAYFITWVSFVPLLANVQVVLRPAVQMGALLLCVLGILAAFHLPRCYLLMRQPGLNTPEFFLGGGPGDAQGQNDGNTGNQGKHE
T1 sequence (Q8TE23 20-839): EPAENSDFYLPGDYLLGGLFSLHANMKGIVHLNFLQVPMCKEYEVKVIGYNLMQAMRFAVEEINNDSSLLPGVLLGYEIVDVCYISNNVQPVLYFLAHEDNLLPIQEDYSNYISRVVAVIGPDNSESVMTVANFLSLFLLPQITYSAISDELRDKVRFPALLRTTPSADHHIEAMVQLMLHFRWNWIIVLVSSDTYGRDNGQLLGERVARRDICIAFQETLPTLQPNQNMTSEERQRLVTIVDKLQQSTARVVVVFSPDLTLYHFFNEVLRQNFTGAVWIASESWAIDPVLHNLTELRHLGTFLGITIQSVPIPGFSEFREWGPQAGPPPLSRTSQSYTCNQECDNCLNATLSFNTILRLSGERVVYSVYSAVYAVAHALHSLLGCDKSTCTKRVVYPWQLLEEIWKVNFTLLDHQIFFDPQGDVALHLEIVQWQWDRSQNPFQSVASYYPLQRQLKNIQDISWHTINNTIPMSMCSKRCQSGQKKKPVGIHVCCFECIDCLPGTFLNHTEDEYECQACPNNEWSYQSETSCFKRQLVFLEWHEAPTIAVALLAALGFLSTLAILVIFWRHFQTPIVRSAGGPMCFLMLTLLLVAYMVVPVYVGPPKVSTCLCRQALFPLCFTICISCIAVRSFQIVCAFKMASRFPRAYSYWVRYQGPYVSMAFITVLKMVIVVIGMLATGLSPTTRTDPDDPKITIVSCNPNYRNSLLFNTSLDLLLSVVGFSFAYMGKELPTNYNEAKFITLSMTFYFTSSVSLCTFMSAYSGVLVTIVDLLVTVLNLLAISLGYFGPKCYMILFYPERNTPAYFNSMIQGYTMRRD
Procedure, shortened: (§1)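 HEK293T cells stably expressing chimeric G16Gust44 were transiently transfected with C-terminally HSV-tagged hTAS1R2 and mutant hTAS1R3, then loaded 24 h later with Fluo4-AM for 1 h. Calcium mobilization after sweet-tastant application was read by FLIPR, mock-corrected and expressed as ΔF/F.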

[2] = target: T2, hTAS1R2 + hTAS1R3 S620A^2.57 (Homo sapiens, UniProt Q7RTX0+Q8TE23, S620A); test: as above; format: cell-based; settings: variant S620A^2.57; for Emax: read-out: maximal signal (% of wt)
T2 construct: expressed in transfected cells; host or cells: HEK293T cells stably expressing G16Gust44
T2 sequence (Q8TE23 20-839): T1 sequence (Q8TE23 20-839)
T2 sequence (Q7RTX0 21-852 S620A): T1 sequence (Q7RTX0 21-852 T724L) with S600A, L704T
Procedure, shortened: as §1

| SMILES | EC50 [1] | Emax [1] | EC50 [2] | Emax [2] |
| --- | --- | --- | --- | --- |
| COc1ccc(CCC(=O)c2c(O)cc(O[C@@H]3O[C@H](CO)[C@@H](O)[C@H](O)[C@H]3O[C@@H]3O[C@@H](C)[C@H](O)[C@@H](O)[C@H]3O)cc2O)cc1O [NHDC, neohesperidin dihydrochalcone] | 500 ± 300 µM | 58 ± 60% | 1300 ± 500 µM | 55 ± 80% |
| COC(=O)[C@H](Cc1ccccc1)NC(=O)[C@@H](N)CC(=O)O [aspartame] (HELM PEPTIDE1{D.F.[CO[*:1]]}$$$$V2.0) | 1500 ± 200 µM | 69 ± 2% | 1200 ± 300 µM | 64 ± 4% |
